Experimental data from US10829520B2, “Beta-hairpin peptidomimetics” (POLYPHOR AG, priority 2015, dated 2020).
Where a SMILES comes first, the peptide text is derived from it. Bridges are numbered along the chain shown (N, C = ends). [ ]: non-standard residue; d: D form. The star is where a group is joined. NαAmidinoTrp = N=C(N)N[C@@H](Cc1c[nH]c2ccccc12)C(=O)*; X2 = CN(C)C(=N[C@@H](Cc1c[nH]c2ccccc12)C(=O)*)N(C)C; Ala(cPent) = N[C@@H](CC1CCCC1)C(=O)O; dDab = NCC[C@@H](N)C(=O)O; Orn = NCCC[C@H](N)C(=O)O; Dab = NCC[C@H](N)C(=O)O; Dap = NC[C@H](N)C(=O)O

Legend:
Assay type in all cases: cell-based
[1] = test system: human red blood cells (hRBC); assay: Hemolysis of human red blood cells; conditions: red cells of human, 1 h, 100 μg/mL
Method in brief: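 hRBC washed 3× PBS; 20% v/v, ~0.9×10^9 cells/mL final. Peptide 100 μg/mL, 1 h, 37° C., 300 rpm. Spin, supernatant diluted 8×, OD540. 0% = PBS + 0.001% acetic acid; 100% = 2.5% Triton X-100. % hemolysis = OD540 peptide/OD540 full lysis × 100.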

[2] = test system: Acinetobacter baumannii 872842; conditions: 872842
[3] = test system: Escherichia coli ATCC 25922; conditions: ATCC 25922
Method in brief: (§1)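 Minimal inhibitory concentrations were recorded in μg/mL after the strains grew 18-20 hours at 35° C with two-fold serial peptide dilutions. The medium was Mueller-Hinton II (cation-adjusted) with 0.002% Polysorbate 80, and the inoculum was about 10^6 CFU/mL.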

[4] = test system: Klebsiella pneumoniae 968733; conditions: 968733
Escherichia coli 926415 = conditions: 926415
[5] = test system: Acinetobacter baumannii DSM 30008; conditions: DSM 30008
Method in brief: as §1

[6] = test system: Pseudomonas aeruginosa ATCC 27853; conditions: ATCC 27853
Method in brief: as §1

[7] = test system: Klebsiella pneumoniae SSI #3010; conditions: SSI #3010
Method in brief: as §1

SMILES	Hemolysis at 100 μg/mL [1] [%]	Acinetobacter baumannii 872842 MIC [2] [µg/mL]	Escherichia coli ATCC 25922 MIC [3] [µg/mL]	Klebsiella pneumoniae 968733 MIC [4] [µg/mL]	Escherichia coli 926415 MIC (Escherichia coli 926415) [µg/mL]	Acinetobacter baumannii DSM 30008 MIC [5] [µg/mL]	Pseudomonas aeruginosa ATCC 27853 MIC [6] [µg/mL]	Klebsiella pneumoniae SSI #3010 MIC [7] [µg/mL]
CC(C)C[C@@H]1NC(=O)[C@@H](Cc2ccccc2)NC(=O)[C@H](CCN)NC(=O)[C@@H](NC(=O)[C@H](CCN)NC(=O)[C@@H](NC(=O)[C@H](CCN)NC(=O)CNC(=O)[C@@H]2CSSC[C@H](NC(=O)[C@@H](N)Cc3c[nH]c4ccccc34)C(=O)N[C@@H](C(C)C)C(=O)N[C@@H](C)C(=O)N[C@@H](CO)C(=O)N3CCC[C@@H]3C(=O)N3CCC[C@H]3C(=O)N[C@@H](CC3CCCC3)C(=O)N[C@@H](CO)C(=O)N[C@@H](Cc3ccc(O)cc3)C(=O)N2)[C@@H](C)O)CCNC(=O)[C@H]([C@@H](C)O)NC(=O)[C@H](CCN)NC(=O)[C@H](CCN)NC1=O [Ex. 132] (H-WCVAS[dP]P[Ala(cPent)]SYCG[Dab]T[Dab][Dab][Dab][dF]L[Dab][Dab]T; disulfide 2-11; lactam 16-C)	<1	0.0625	0.0625	0.125	0.1255	0.0625	0.25	0.125
CC(C)C[C@@H]1NC(=O)[C@@H](CC(C)C)NC(=O)[C@H](CCN)NC(=O)[C@@H](NC(=O)[C@H](CCN)NC(=O)[C@@H](NC(=O)[C@H](CCN)NC(=O)CNC(=O)[C@@H]2CSSC[C@H](NC(=O)[C@H](Cc3c[nH]c4ccccc34)N=C(N(C)C)N(C)C)C(=O)N[C@@H](C(C)C)C(=O)N[C@@H](C)C(=O)N[C@@H](CO)C(=O)N3CCC[C@@H]3C(=O)N3CCC[C@H]3C(=O)N[C@@H](CC(C)C)C(=O)N[C@@H](CO)C(=O)N[C@@H](Cc3ccc(O)cc3)C(=O)N2)[C@@H](C)O)CCNC(=O)[C@H]([C@@H](C)O)NC(=O)[C@H](CCN)NC(=O)[C@H](CCN)NC1=O [Ex. 133] (X2-CVAS[dP]PLSYCG[Dab]T[Dab][Dab][Dab][dL]L[Dab][Dab]T; disulfide 1-10; lactam 15-C)	<1	4	0.25	8	4	1	1	1
CC(C)C[C@@H]1NC(=O)[C@@H](CC(C)C)NC(=O)[C@H](CCN)NC(=O)[C@@H](NC(=O)[C@H](CCN)NC(=O)[C@@H](NC(=O)[C@H](CCN)NC(=O)[C@@H](C)NC(=O)[C@@H]2CSSC[C@H](NC(=O)[C@H](Cc3c[nH]c4ccccc34)NC(=N)N)C(=O)N[C@@H](C(C)C)C(=O)N[C@@H](C)C(=O)N[C@@H](CO)C(=O)N3CCC[C@@H]3C(=O)N3CCC[C@H]3C(=O)N[C@@H](CC(C)C)C(=O)N[C@@H](CO)C(=O)N[C@@H](Cc3ccc(O)cc3)C(=O)N2)[C@@H](C)O)CCNC(=O)[C@H]([C@@H](C)O)NC(=O)[C@H](CCN)NC(=O)[C@H](CCN)NC1=O [Ex. 135] (NαAmidinoTrp-CVAS[dP]PLSYC[dA][Dab]T[Dab][Dab][Dab][dL]L[Dab][Dab]T; disulfide 1-10; lactam 15-C)	1	0.5	0.125	8	1	0.25	0.5	0.5
CC(C)C[C@@H]1NC(=O)[C@@H](CC(C)C)NC(=O)[C@H](CCN)NC(=O)[C@@H](NC(=O)[C@H](CCN)NC(=O)[C@@H](CCN)NC(=O)[C@@H](NC(=O)[C@H](CCCN)NC(=O)[C@@H]2CSSC[C@H](NC(=O)[C@@H](N)Cc3c[nH]c4ccccc34)C(=O)N[C@@H](C(C)C)C(=O)NCC(=O)N[C@@H](CO)C(=O)N3CCC[C@@H]3C(=O)N3CCC[C@H]3C(=O)N[C@@H](C(C)C)C(=O)N[C@@H](CN)C(=O)N[C@@H](Cc3ccc(O)cc3)C(=O)N2)[C@@H](C)O)CCNC(=O)[C@H]([C@@H](C)O)NC(=O)[C@H](CCN)NC(=O)[C@H](CCN)NC1=O [Ex. 136] (H-WCVGS[dP]PV[Dap]YC[Orn]T[dDab][Dab][Dab][Dab][dL]L[Dab][Dab]T; disulfide 2-11; lactam 16-C)	<1	0.25	0.5	4	0.5	1	0.25	1
